Converted amounts (≈) assume the structure as drawn. Structures can show the parent of a compound that is named as a salt.
Test: Solubility (Solubilités) in water and dimethyl sulfoxide
Type: physicochemical
Settings: for solubility in dimethyl sulfoxide: diméthylsulfoxyde; for solubility: water, eau, read-out: Solubilités : Soluble dans l'eau

| SMILES | solubility in dimethyl sulfoxide [%] | solubility [mg/mL] |
| --- | --- | --- |
| Cc1cccc(COCC(O)CNC(C)C)c1 (stereo not shown) [Exemple 1, isopropylamino-3, m-tolyl méthoxy-1 propanol-2 fumarate] | 15 | 100 |
| Cc1cccc(COCC(O)CNC(C)(C)C)c1 (stereo not shown) [Exemple 2, tertiobutvlamino-3 métatol lméthoxy-1 propanol-2 maléate] | 10 | 25 (≈ 99.5 mM) |
| COc1ccccc1COCC(O)CNC(C)C (stereo not shown) [Exemple 3, isopropylamino-3 (orthométhoxy benzyloxy) 1 propanol-2 fumarate] | 15 | 100 |
| COc1ccccc1COCC(O)CNC(C)(C)C (stereo not shown) [Exemple 4, tertiobutylamino-3 (orthométhoxy benzyloxy)-1 propanol-2 maléate] | 15 | 100 (≈ 374 mM) |
| COc1cccc(COCC(O)CNC(C)(C)C)c1 (stereo not shown) [Exemple 5, tertiobutylamino-3 (métaméthoxybenzyloxy)-1 propanol-2 maléate] | 12 | 100 (≈ 374 mM) |
| COc1ccc(COCC(O)CNC(C)(C)C)cc1 (stereo not shown) [Exemple 6, tertiobutylamino-3 (paraméthoxy benzyloxy)-1 propanol-2 maléate] | 20 | 100 (≈ 374 mM) |
| CC(C)(C)NCC(O)COCc1cccc(OCc2ccccc2)c1 (stereo not shown) [Exemple 7, tertiobutylamino-3 métabenzyloxy-benzyloxy-1 propanol-2 maléate] | 20 | 2 (≈ 5.82 mM) |
| CC(C)NCC(O)COCc1cccc2ccccc12 (stereo not drawn) [Exemple 8, isopropylamino-3 (alpha-naphtyl méthoxy)-1 propanol-2 fumarate] | 8 | 14 |
| CC(C)(C)NCC(O)COCc1cccc2ccccc12 (stereo not drawn) [Exemple 9, tertiobutylamino-3 (alpha-naphtyl méthoxy)-1 propanol-2 fumarate] | 15 | 100 |
| CC(C)NCC(O)COCCCc1ccccc1 (stereo not shown) [Exemple 10, isopropylamino-3(phényl-3 propoxy)-1 pro^panol-2 fumarate] | 12 | 100 |
| CC(C)(C)NCC(O)COCCCc1ccccc1 (stereo not shown) [Exemple 11, tertiobutylamino-3 phényl-3 propoxy)-1 propanol-2 fumarate] | 15 | 100 |
| CC(C)(C)NCC(O)COC/C=C/c1ccccc1 (stereo not shown) [Exemple 12, tertiobutylamino-3 (phényl-3 propène-2 yl-1) oxy-1 ^propanol-2 maléate] | 15 | 10 (≈ 38 mM) |
| CC(C)(C)NCC(O)COC1Cc2ccccc2C1 (stereo not shown) [Exemple 14, tertiobutylamino-3 (indanyl-2 oxy)-1 propanol-2 maléate] | 10 | 100 (≈ 380 mM) |
| CC(C)NCC(O)COC1CCCc2ccccc21 (stereo not shown) [Exemple 15, isopropylamino-3 (tétrahydro 1,2,3,4 naphtyloxy-1)-1 propanol-2 fumarate] | – | 30 |
| CC(C)(C)NCC(O)COC1CCCc2ccccc21 (stereo not shown) [Exemple 16, tertiobutylamino-3 (tétrahydro 1,2,3,4 naphtoxy-1)-1 pro^panol-2 maléate] | – | 20 (≈ 72.1 mM) |
